In patent US7585895B2, “Therapeutic substituted cyclopentanes” (Allergan, Inc., priority 2005, dated 2009):

Legend:
Assay type in all cases: in vivo
Rabbit ocular hyperemia = details: Conc. 0.1 g/100 mL
[1] = Dog intraocular pressure (Max. ΔIOP); details: Canis lupus familiaris, Conc. 0.1 g/100 mL
[2] = Monkey intraocular pressure (Max. ΔIOP); details: Primates, Conc. 0.1 g/100 mL
Dog ocular hyperemia = details: Conc. 0.1 g/100 mL

CCCCCCc1ccc([C@@H]2[C@@H](C/C=C\CCCC(=O)O)[C@H](Cl)C[C@H]2O)cc1 [compound 6]
RABBIT Max. hyperemia (Rabbit ocular hyperemia): 0.25
change in vivo at 1000 µg/mL [1]: -43%
change in vivo at 1000 µg/mL [2]: 32%
DOG Max. hpyeremia (Dog ocular hyperemia): 0.6
